Source: patent US6723750B2, “Photodynamic therapy for pre-melanomas” (Allergan, Inc., priority 2002, dated 2004)

Test system: pre-melanoma
Assay: Photodynamic therapy of pre-melanoma around the excision site after surgical melanoma removal (patient case examples)
Type: in vivo, human
Procedure: The melanoma is surgically removed and the patient is treated for pre-melanoma using photodynamic therapy. The area around the point of excision of the melanoma is contacted with a composition which includes aminolevulinic acid methyl ester at about a 10% (w/w) and a penetrating agent, DMSO, at a concentration of about 10% (w/w). The composition is applied directly to and around the site of excision of the melanoma covering an area of approximately 100 cm^2. The application is repeated once an hour for an 8 hour period. The area is then exposed to light in the wavelength range of about 500 to about 700 nm for approximately 10 hours.
The melanoma is surgically removed and the patient is treated for pre-melanoma using photodynamic therapy. The area around the point of excision of the melanoma is contacted with an ointment which includes amino levulinic acid methyl ester at about 5% (w/w) and a penetrating agent, DMSO, at a concentration of about 15% (w/w). The ointment is applied directly to and around the site of excision of the melanoma. The site of application is covered with a semi-permeable membrane for 24 hours after which the application is repeated and again covered for a 24 hour period. The area is then exposed to light in the wavelength range of about 610 nm to about 670 nm for approximately 2 hours once a day for four straight days. […]

SMILES: COC(=O)CCC(=O)CN [aminolevulinic acid methyl ester]
- cancer status of patient after treatment (Example 3: thigh, superficial spreading melanoma removed, about 10% (w/w) with DMSO about 10% (w/w), topical, once an hour for 8 hours, light about 500 to about 700 nm approx. 10 hours, at one year after treatment): no sign of cancer
- cancer status of patient after surgery and treatment (Example 6: foot, acral lentiginous melanoma removed, ointment about 5% (w/w) with DMSO about 15% (w/w), two 24 hour applications, light about 610 nm to about 670 nm approx. 2 hours once a day for four days, two years after surgery): no sign of the cancer
